Consider one compound from US8232402B2, “Quinolinone farnesyl transferase inhibitors for the treatment of synucleinopathies and other indications” (Link Medicine Corporation, priority 2008, dated 2012).

The target of data set [1] is recombinant farnesyl transferase (FTase) (Homo sapiens, UniProt P49354+P49356). Nature of the data set: In vitro farnesyl transferase assay (fluorescent dansyl-pentapeptide). In kind it is biochemical. To be noted: in vitro and in vivo. An excerpt:
These neuroblastoma cells can be differentiated into dopaminergic cells and are useful for assessing the pathogenesis of Parkinson's disease (PD). […] Similar findings were found in vivo. […] IC50 values for various inventive compounds have been determined in in vitro assays using recombinant farnesyl transferase and a dansylated pentapeptide substrate. For a description of the assay used, see Cassidy et al., Methods Enzymol. 250:30-43, 1995, which is incorporated herein by reference. […] The compounds were also found to inhibit the farnesylation of Ras in cells treated with the test compound. IC50 values in vivo range from about 0.5 nM to about 25 μM.
Compounds were analyzed for inhibition of farnesyl transferase (FTase) activity using an established fluorescent peptide-based assay (Pompliano et al 1992 J. Am. Chem. Soc. 114:7945; U.S. Pat. No. 5,525,479, issued Jun. 11, 1996; each of which is incorporated herein by reference). In summary, a dansyl-pentapeptide (dGCVLS) (SEQ ID NO: 8) was incubated at […] with […] farnesyl pyrophosphate (FPP) and 25-50 nM FTase in 50 mM Tris-HC1/12 mM MgC12/[…]/6 mM DTT/0.2% octyl-D- -glucopyranoside/pH 7.0 at room temperature while the increase in fluorescence of the peptide at Ex =340 nm , Em =485 nm upon farnesyl addition was monitored continuously by a spectrofluorometer. […]

In data set [2] the test system is Neuronal Specific Nuclear Protein (NeuN). Nature of the data set: NeuN staining of cortex and hippocampus of α-synuclein transgenic mice. The data set is classed as in vivo. The settings on record: 90 days.
Data set [3] relates to α-synuclein. Nature of the data set: α-synuclein sandwich ELISA in brain fractions of α-synuclein transgenic mice. In kind it is in vivo. The procedure: (§1) Farnesyl transferase inhibitors Zarnestra and OSI-754 were administered to mice of the α-synuclein transgenic line described in Masliah et al. (Masliah et al. “Dopaminergic loss and inclusion body formation in alpha-synuclein mice: implications for neurodegenerative disorders” Science 287(5456): 1265-69, 2000; incorporated herein by reference). Animals from this line have α-synuclein neuronal inclusions in the cortex, hippocampus, and the olfactory bulb (Masliah et al. “Dopaminergic loss and inclusion body formation in alpha-synuclein mice: implications for neurodegenerative disorders” Science 287(5456): 1265-69, 2000; incorporated herein by reference). Transgenic mice were orally administered either FTI in 20% cyclodextrin solution or the same volume of vehicle alone twice a day for 30 or 90 days. In some cases, non-transgenic mice also received vehicle twice a day for 30 to 90 days. At the end of treatment, mice were sacrificed, and the brains removed and hemisected. One hemisphere of each was fixed in 4% paraformaldehyde/PBS (pH 7.4), cryoperserved, then sectioned for histology. The other hemisphere was subdivided into four brain regions, including the cortex and hippocampus, that were homogenized and processed into cytoplasmic and membrane fractions.
Total α-synuclein levels were analyzed by a sandwich ELISA assay similar to one previously described (El-Agnaf et al. “Detection of oligomeric forms of alpha-synuclein protein in human plasma as a potential biomarker for Parkinson's disease” FASEB J. 20(3):419-25, 2006; incorporated herein by reference). In the cortex of vehicle treated animals, α-synuclein protein levels in the α-synuclein transgenic line are greater than in non-transgenic mice in both cytoplasmic (FIG. 10) and membrane fractions (FIG. 11). Transgenic mice that received Zarnestra had lower α-synuclein protein levels than vehicle-treated transgenic mice and nearly the same as that detected in the non-transgenic group in both the cytoplasmic (FIG. 10) and membrane fractions (FIG. 11), which represent soluble and insoluble α-synuclein, respectively. Farnesylated UCH-L1 in the cortex is contained in the membrane fraction. The amount of UCH-L1 was determined by quantitative Western Blot.

For data set [4], the system named is α-synuclein inclusions. In words: Inclusion histology in α-synuclein transgenic mice (α-synuclein and ubiquitin immunostaining, Campbell-Switzer). In kind it is in vivo. To be noted: for α-synuclein-positive cells per mm^2 versus vehicle: cortex and hippocampus. The procedure:
as §1
Formation of α-synuclein inclusions in the cortex and hippocampus was probed by immunostaining with an antibody for human α-synuclein. Cells positive for human α-synuclein were quantified. […] These regions were also analyzed for ubiquitin-immunoreactive inclusions and by the Campbell Switzer method of silver staining. Ubiquitin is known to be a constituent of Lewy bodies and in the α-synculein inclusions found in the transgenic mouse line used in the study (Masliah et al. “Dopaminergic loss and inclusion body formation in alpha-synuclein mice: implications for neurodegenerative disorders” Science 287(5456): 1265-69, 2000; incorporated herein by reference). […] Campbell-Switzer staining is a general marker of Lewy Body type inclusions (Uchihara et al. “Silver stainings distinguish Lewy bodies and glial cytoplasmic inclusions: comparison between Gallyas-Braak and Campbell-Switzer methods” Acta Neuropathol (Berl) 110(3):255-60, 2005; incorporated herein by reference).
Formation of α-synuclein inclusions in the cortex and hippocampus was probed by immunostaining with an antibody for human α-synuclein. Cells positive for human α-synuclein were quantified.

For data set [5], the system named is farnesylated UCH-L1. In words: Farnesylated UCH-L1 in cortex membrane fraction of α-synuclein transgenic mice (quantitative Western blot). The data set is classed as in vivo. The settings on record: normalized to actin, 45 mg/kg twice a day, 30 days. Here is the method: Farnesyl transferase inhibitors Zarnestra and OSI-754 were administered to mice of the α-synuclein transgenic line described in Masliah et al. (Masliah et al. “Dopaminergic loss and inclusion body formation in alpha-synuclein mice: implications for neurodegenerative disorders” Science 287(5456): 1265-69, 2000; incorporated herein by reference). Animals from this line have α-synuclein neuronal inclusions in the cortex, hippocampus, and the olfactory bulb (Masliah et al. “Dopaminergic loss and inclusion body formation in alpha-synuclein mice: implications for neurodegenerative disorders” Science 287(5456): 1265-69, 2000; incorporated herein by reference). […]
Total α-synuclein levels were analyzed by a sandwich ELISA assay similar to one previously described (El-Agnaf et al. “Detection of oligomeric forms of alpha-synuclein protein in human plasma as a potential biomarker for Parkinson's disease” FASEB J. 20(3):419-25, 2006; incorporated herein by reference). […] Transgenic mice that received Zarnestra had lower α-synuclein protein levels than vehicle-treated transgenic mice and nearly the same as that detected in the non-transgenic group in both the cytoplasmic (FIG. 10) and membrane fractions (FIG. 11), which represent soluble and insoluble α-synuclein, respectively. […] The amount of UCH-L1 was determined by quantitative Western Blot. […]

Where [6] appears, read: α-synuclein transgenic mice, summary, dose not given.

With `C#Cc1cccc(-c2cc(=O)n(C)c3ccc(C(O)(c4ccc(Cl)cc4)c4cncn4C)cc23)c1` (stereo not drawn) [LNK-754], in data set [1], the “inhibition of the farnesylation of proteins and/or peptides” value is “inhibit the farnesylation of proteins and/or peptides in vitro and in vivo”. Moreover, the “neuronal morphology or density (NeuN staining)” value in data set [2] is given as “did not affect neuronal morphology or density”. The “levels of α-synuclein protein (ELISA)” value in data set [3] (cortex and hippocampus, 9 mg/kg twice a day, 90 days) is given as “decreased levels of α-synuclein protein”; in data set [3] (cortex and hippocampus, 45 mg/kg twice a day, 90 days), “decreased levels of α-synuclein protein”; in data set [3] (cortex, cytoplasmic and membrane fractions, 45 mg/kg twice a day, 30 days), “decreased levels of α-synuclein protein”. In addition, in data set [3] (setting [6]), the “levels of α-synuclein in the cortex” value is on record as “decrease levels of α-synuclein in the cortex”. The inclusions versus vehicle result was “fewer inclusions” in data set [4] (9 mg/kg twice a day, 90 days); “fewer inclusions” in data set [4] (45 mg/kg twice a day, 90 days); “fewer inclusions” in data set [4] (setting [6]). Besides, the “α-synuclein-positive cells per mm^2 versus vehicle” value is given as “fewer α-synuclein-positive cells per mm^2” in data set [4] (9 mg/kg twice a day, 90 days) and “fewer α-synuclein-positive cells per mm^2” in data set [4] (45 mg/kg twice a day, 90 days). Further, the “amount of farnesylated UCH-L1” value in data set [5] is given as “decreased the amount of farnesylated UCH-L1”.
